Literature values, collected in patent US5981529A, “Substituted indolylpropyl-piperazine derivatives as 5-HT1D α agonists” (Merck Sharp & Dohme Limited, priority 1995, dated 1999).

How the values were obtained:
[1] = system: human 5-HT1Dα and 5-HT1Dβ receptor subtypes; settings: cf. WO-A-91/17174, Table 1
[2] = therapeutic doses

## CNS(=O)(=O)Cc1ccc2[nH]cc(CCN(C)C)c2c1 [sumatriptan]
[1]
  discrimination between the human 5-HT1Dα and 5-HT1Dβ receptor subtypes: barely discriminates between the human 5-HT1Dα and 5-HT1Dβ receptor subtypes
[2]
  adverse events on administration to humans: certain adverse cardiovascular events
